IC50 data for 21 compounds are collected here from patent US9540392B2, “Thienopyrimidines” (BAYER PHARMA AKTIENGESELLSCHAFT, priority 2012, dated 2017).

For the assay, the target named is T1, human full-length MKNK1 (Homo sapiens, UniProt Q9BUB5, T385D).
T1 construct: GST (N); purchased Carna Biosciences 02-145; host or cells: insect cells (baculovirus expression system)
T1 sequence (Q9BUB5 1-424 isoform Q9BUB5-2 T344D): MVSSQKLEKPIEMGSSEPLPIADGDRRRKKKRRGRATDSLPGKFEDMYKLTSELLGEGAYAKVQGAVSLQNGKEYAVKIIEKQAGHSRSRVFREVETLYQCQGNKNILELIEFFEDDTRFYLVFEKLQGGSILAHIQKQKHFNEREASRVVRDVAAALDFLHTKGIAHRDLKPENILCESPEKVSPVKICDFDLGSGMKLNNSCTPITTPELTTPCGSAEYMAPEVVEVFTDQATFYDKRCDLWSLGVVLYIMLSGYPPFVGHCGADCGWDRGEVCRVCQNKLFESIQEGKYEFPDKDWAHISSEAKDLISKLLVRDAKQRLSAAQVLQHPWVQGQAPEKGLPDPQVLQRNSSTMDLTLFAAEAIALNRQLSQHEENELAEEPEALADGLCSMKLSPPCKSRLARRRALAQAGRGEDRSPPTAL
Nature of the assay: MKNK1 kinase high ATP assay (TR-FRET). The conditions noted are these: 2 mM ATP, after preincubation with MKNK1; read-out: MKNK1 IC50 (MKNK1 high ATP). The assay is classed as biochemical. The protocol:
MKNK1-inhibitory activity at high ATP of compounds of the present invention after their preincubation with MKNK1 was quantified employing the TR-FRET-based MKNK1 high ATP assay as described in the following paragraphs.
As substrate for the kinase reaction the biotinylated peptide biotin-Ahx-[…] (C-terminus in amide form) was used, which can be purchased e.g. from the company Biosyntan (Berlin-Buch, Germany).
For the assay 50 nL of a 100 fold concentrated solution of the test compound in DMSO was pipetted into a black low volume 384 well microtiter plate (Greiner Bio-One, Frickenhausen, Germany), 2 μL of a solution of MKNK1 in aqueous assay buffer [50 mM HEPES pH 7.5, 5 mM MgCl2, 1.0 mM dithiothreitol, 0.005% (v/v) Nonidet-P40 (Sigma)] was added and the mixture was incubated for 15 min at 22° C. to allow pre-binding of the test compounds to the enzyme before the start of the kinase reaction. Then the kinase reaction was started by the addition of 3 μL of a solution of adenosine-tri-phosphate (ATP, 3.3 mM=>final conc. in the 5 μL assay volume is 2 mM) and substrate (0.1 μM=>final conc. in the 5 μL assay volume is 0.06 μM) in assay buffer and the resulting mixture was incubated for a reaction time of 30 min at 22° C. The concentration of MKNK1 was adjusted depending of the activity of the enzyme lot and was chosen appropriate to have the assay in the linear range, typical concentrations were in the range of 0.003 μg/mL. The reaction was stopped by the addition of 5 μL of a solution of TR-FRET detection reagents (5 nM streptavidine-XL665 [Cisbio Bioassays, Codolet, France] and 1 nM anti-ribosomal protein S6 (pSer236)-antibody from Invitrogen [#44921G] and 1 nM LANCE EU-W1024 Labeled ProteinG [Perkin-Elmer, product no. AD0071]) in an aqueous EDTA-solution (100 mM EDTA, 0.1% (w/v) bovine serum albumin in 50 mM HEPES pH 7.5).
The resulting mixture was incubated for 1 h at 22° C. to allow the formation of complex between the phosphorylated biotinylated peptide and the detection reagents. Subsequently the amount of phosphorylated substrate was evaluated by measurement of the resonance energy transfer from the Eu-chelate to the streptavidine-XL. Therefore, the fluorescence emissions at 620 nm and 665 nm after excitation at 350 nm were measured in a TR-FRET reader, e.g. a Rubystar (BMG Labtechnologies, Offenburg, Germany) or a Viewlux (Perkin-Elmer). The ratio of the emissions at 665 nm and at 622 nm was taken as the measure for the amount of phosphorylated substrate.
On the technique in general: Time-resolved FRET reads energy transfer from a long-lived donor to a nearby acceptor.
In the case of `COc1cc2[nH]ncc2cc1Nc1ncnc2sc3c(c12)CCC(C(=O)N1CC(O)C1)C3` (racemic) [Example 272, (RS)-(3-Hydroxyazetidin-1-yl){4-[(6-methoxy-1H-indazol-5-yl)amino]-5,6,7,8-tetrahydro[1]benzothieno[2,3-d]pyrimidin-7-yl}methanone], the IC50 came out at 0.6 nM.
The value for `O=C(CN1CCN(C(=O)C2CCc3c(sc4ncnc(Nc5ccc6[nH]ncc6c5)c34)C2)CC1)N1CCCC1` (racemic) [Example 201, (RS)-2-(4-{[4-(1H-indazol-5-ylamino)-5,6,7,8-tetrahydro[1]benzothieno[2,3-d]pyrimidin-7-yl]carbonyl}piperazin-1-yl)-1-(pyrrolidin-1-yl)ethanone] was 18.1 nM; that for `O=C(C1CCc2c(sc3ncnc(Nc4ccc5[nH]ncc5c4)c23)C1)N1CC=CC1` (racemic) [Example 184, (RS)-2,5-dihydro-1H-pyrrol-1-yl[4-(1H-indazol-5-ylamino)-5,6,7,8-tetrahydro[1]benzothieno[2,3-d]pyrimidin-7-yl]methanone] was 12.4 nM; that for `Cn1nccc1CNC(=O)C1CCc2c(sc3ncnc(Nc4ccc5[nH]ncc5c4)c23)C1` (racemic) [Example 136, (RS)-4-(1H-indazol-5-ylamino)-N-[(1-methyl-1H-pyrazol-5-yl)methyl]-5,6,7,8-tetrahydro[1]benzothieno[2,3-d]pyrimidine-7-carboxamide] was 7.6 nM.
Consider `CCOC(=O)C1CCc2c(sc3ncnc(Nc4ccc5[nH]nc(C)c5c4)c23)C1` (racemic) [Example 61, (RS)-Ethyl 4-[(3-methyl-1H-indazol-5-yl)amino]-5,6,7,8-tetrahydro[1]benzothieno[2,3-d]pyrimidine-7-carboxylate], for which the IC50 stood at 1020 nM.
The value for `O=C(Nc1cc[nH]n1)C1CCc2c(sc3ncnc(Nc4ccc5[nH]ncc5c4)c23)C1` (racemic) [Example 89, (RS)-4-(1H-indazol-5-ylamino)-N-(1H-pyrazol-3-yl)-5,6,7,8-tetrahydro[1]benzothieno[2,3-d]pyrimidine-7-carboxamide] was 24.1 nM; that for `CN(C)CCN(C)C(=O)C1CCc2c(sc3ncnc(Nc4ccc5[nH]ncc5c4)c23)C1` (stereo not drawn) [Example 45, N-[2-(Dimethylamino)ethyl]-4-(1H-indazol-5-ylamino)-N-methyl-5,6,7,8-tetrahydro[1] benzothieno [2,3-d]pyrimidine-7-carboxamide] was 9 nM; that for `CN(C)CCCN(C)C(=O)C1CCc2c(sc3ncnc(Nc4ccc5[nH]ncc5c4)c23)C1` (racemic) [Example 96, (RS)-N-[3-(dimethylamino)propyl]-4-(1H-indazol-5-ylamino)-N-methyl-5,6,7,8-tetrahydro[1]benzothieno[2,3-d]pyrimidine-7-carboxamide] was 16.3 nM.
The value for `O=C(Nc1cncnc1)C1CCc2c(sc3ncnc(Nc4ccc5[nH]ncc5c4)c23)C1` (racemic) [Example 150, (RS)-4-(1H-indazol-5-ylamino)-N-(pyrimidin-5-yl)-5,6,7,8-tetrahydro[1]benzothieno[2,3-d]pyrimidine-7-carboxamide] was 31.2 nM; that for `CCOc1cc2[nH]ncc2cc1Nc1ncnc2sc3c(c12)CCC(C(=O)N1CC=CC1)C3` (racemic) [Example 255, (RS)-2,5-Dihydro-1H-pyrrol-1-yl{4-[(6-ethoxy-1H-indazol-5-yl)amino]-5,6,7,8-tetrahydro[1]benzothieno[2,3-d]pyrimidin-7-yl}methanone] was 0.3 nM.
The value for `O=C(NCc1ccncc1)C1CCc2c(sc3ncnc(Nc4ccc5[nH]ncc5c4)c23)C1` (stereo not drawn) [Example 29, 4-(1H-Indazol-5-ylamino)-N-(pyridin-4-ylmethyl)-5,6,7,8-tetrahydro[1] benzothieno [2,3-d]pyrimidine-7-carboxamide] was 4 nM; that for `CN(CCO)C(=O)C1CCc2c(sc3ncnc(Nc4ccc5[nH]ncc5c4)c23)C1` (stereo not drawn) [Example 41, N-(2-Hydroxyethyl)-4-(1H-indazol-5-ylamino)-N-methyl-5,6,7,8-tetrahydro[1] benzothieno [2,3-d]pyrimidine-7-carboxamide] was 8 nM.
In the case of `CCOc1cc2[nH]ncc2cc1Nc1ncnc2sc3c(c12)CCC(C(=O)N1CCN(CC2CC2)CC1)C3` (racemic) [Example 247, (RS)-[4-(Cyclopropylmethyl)piperazin-1-yl]{4-[(6-ethoxy-1H-indazol-5-yl)amino]-5,6,7,8-tetrahydro[1]benzothieno[2,3-d]pyrimidin-7-yl}methanone], the concentration for half-maximal inhibition (IC50) is 0.3 nM.
The value for `COc1ccc(NC(=O)C2CCc3c(sc4ncnc(Nc5ccc6[nH]ncc6c5)c34)C2)cc1` (stereo not drawn) [Example 14, 4-(1H-indazol-5-ylamino)-N-(4-methoxyphenyl)-5,6,7,8-tetrahydro[1]benzothieno[2,3-d]pyrimidine-7-carboxamide] was 7 nM.
The value for `O=C(C1CCc2c(sc3ncnc(Nc4ccc5[nH]ncc5c4)c23)C1)N1CC[C@@H](O)C1` (mixture of isomers) [Example 134, (RS)-(3-hydroxypyrrolidin-1-yl)[4-(1H-indazol-5-ylamino)-5,6,7,8-tetrahydro[1]benzothieno[2,3-d]pyrimidin-7-yl]methanone] was 12.7 nM; that for `COCCCN1CCN(C(=O)C2CCc3c(sc4ncnc(Nc5ccc6[nH]ncc6c5)c34)C2)CC1` (racemic) [Example 153, (RS)-[4-(1H-indazol-5-ylamino)-5,6,7,8-tetrahydro[1]benzothieno[2,3-d]pyrimidin-7-yl][4-(3-methoxypropyl)piperazin-1-yl]methanone] was 32.5 nM.
The value for `O=C(NCCCN1CCCC1=O)C1CCc2c(sc3ncnc(Nc4ccc5[nH]ncc5c4)c23)C1` (stereo not drawn) [Example 49, 4-(1H-Indazol-5-ylamino)-N-[3-(2-oxopyrrolidin-1-yl)propyl]-5,6,7,8-tetrahydro[1] benzothieno [2,3-d]pyrimidine-7-carboxamide] was 13 nM; that for `CN(C)C1CCN(C(=O)C2CCc3c(sc4ncnc(Nc5ccc6[nH]ncc6c5)c34)C2)C1` (racemic) [Example 205, (RS)-[3-(dimethylamino)pyrrolidin-1-yl][4-(1H-indazol-5-ylamino)-5,6,7,8-tetrahydro[1]benzothieno[2,3-d]pyrimidin-7-yl]methanone] was 7.3 nM; that for `C#CCN(C)C(=O)C1CCc2c(sc3ncnc(Nc4ccc5[nH]ncc5c4)c23)C1` (stereo not drawn) [Example 35, 4-(1H-Indazol-5-ylamino)-N-methyl-N-(prop-2-yn-1-yl)-5,6,7,8-tetrahydro[1] benzothieno [2,3-d]pyrimidine-7-carboxamide] was 5 nM.
With `O=C(C1CCc2c(sc3ncnc(Nc4ccc5[nH]ncc5c4)c23)C1)N1CCC1` (stereo not drawn) [Example 43, Azetidin-1-yl[4-(1H-indazol-5-ylamino)-5,6,7,8-tetrahydro[1]benzothieno [2,3-d]pyrimidin-7-yl]methanone], the IC50 is 9 nM.
The value for `CCOC(=O)C1CCc2c(sc3ncnc(Nc4ccc5[nH]ncc5c4C)c23)C1` (racemic) [Example 60, (RS)-Ethyl 4-[(4-methyl-1H-indazol-5-yl)amino]-5,6,7,8-tetrahydro[1]benzothieno[2,3-d]pyrimidine-7-carboxylate] was 2180 nM.

By IC50 is commonly meant the concentration that inhibits the measured activity by half.
